Data from patent US20170304359A1, “ORAL IODINE DOSAGE FORM” (priority 2016, published 2017).

Columns and labels:
[1] = test system: MCF7, MDA-MB231, MCF10A, and primary cells; format: cell-based, human
[2] = test system: breast cancer and fibrocystic cell lines; experiment: qRT-PCR gene expression analysis; format: cell-based, human; settings: molecular iodine treatment
Procedure: An in vitro study was performed to assess the effect of molecular iodine in breast cancer and fibrocystic breast cell lines relative to the effects in human mammary epithelial cells (HMEC)(“primary cells”). The study measured gene expression for key markers in each of the cell lines following in vitro addition to the cells of cell media mixtures that comprised iodine species.
As mentioned in the previous paragraph, each of the four cell lines described in the previous paragraph was added to a sample of each of the six cell media mixtures CM1 to CM6. As an untreated control, one sample for each cell line was mixed with media only. Real-time reverse transcription polymerase chain reaction (qRT-PCR) was used to measure several key mRNA markers for apoptosis and cell growth in breast tissue for each combination of cell line and cell media mixture. The measured markers for cell growth were Cyclin D1, Cyclin E1, Cyclin B1, CDK2, and CDKN1B. The measured markers for apoptosis were BCL2 and Caspase 3. Cyclin D1 is required for progression through the G1 phase of the cell cycle. Cyclin E1 is required for cell cycle G1/S transition. Cyclin B1 is involved in the early events of mitosis, such as chromosome condensation, nuclear envelop breakdown, and spindle pole assembly. CDK2 is required for the transition from G1 to S phase and binding with Cyclin A is required to progress through the S phase. CDKN1B binds to and prevents the activation of cyclin E-CDK2 or Cyclin D-CDK4 complexes, and thus controls the cell cycle progression at G1. BCL2 plays an important role in promoting cellular survival and inhibiting the actions of pro-apoptotic proteins. Caspase 3 plays a central role in the execution phase of cell apoptosis. […] Table 4 presents the data normalized to the corresponding data for the primary cells when added to CM6.
BCL-2, an inhibitor of cell death, was increased, while expression of caspase-3 was decreased.

[3] = test system: fibrocystic breast condition; settings: about 3 to about 12 mg of molecular iodine per day; clinical trials (Kessler 2004; Ghent 1993); cited from earlier work
[4] = Aceves et al. 2013; cited from earlier work
[5] = Aceves et al. 2013; cited from earlier work; remark: listed apart in the source

Compound | selectivity for apoptosis and cell proliferation between cancerous or fibrocystic cells and healthy human mammary epithelial cells [1] | susceptibility of breast cancer cell lines compared to primary cells (cell death) ([1]; 24 hours, FIG. 3) | effects on cell growth in both breast cancer and FBC [2] | BCL-2 expression ([2]; quantitative RT-PCR) | Cyclin B expression levels ([2]; quantitative RT-PCR) | expression of caspase-3 ([2]; quantitative RT-PCR) | expression of cell cycle genes controlling G1-S phase transition ([2]; quantitative RT-PCR) | expression of nuclear hormone receptor PPAR-α ([2]; quantitative RT-PCR) | expression of nuclear hormone receptor PPAR-γ ([2]; quantitative RT-PCR) | treatment of fibrocystic breast condition [3] | difference in uptake in the thyroid between molecular iodine and iodide [4] | uptake difference between molecular iodine and iodide in the breast [5]
[I-].[K+] [CM3, potassium iodide, reference compound] | not present | – | – | – | – | – | – | – | – | – | – | –
II [molecular iodine] | – | more susceptible | potent inhibitory effects | increased | No significant changes | decreased | largely up-regulated | up-regulated | up-regulated | effective | 3-4 fold | small uptake difference
